Read-outs that look alike come from different tables or passages of the source. Each block holds one molecule with its values, some of them ahead of it.
Key:
HepG2 cells [1] = tested on: HepG2 cells
Method: (§1) HepG2 cells (purchased from RIKEN BioResource Center, RCB1648, Lot.004) suspended in 0.5 mL DMEM culture medium containing 10% FBS, 20 mM HEPES, 100 units/mL penicillin, and 100 μg/mL streptomycin were seeded at 5×10^4 cells/cm^2 and cultured for 2 days in a hydrogel membrane chamber (ad-MED Vitrigel (registered trademark) manufactured by KANTO KAGAKU) to which a detachable silicone-coated PET film is attached. Thereafter, the film on a bottom surface of the hydrogel membrane chamber was detached, the chamber was mounted in a well of a 12-well plate, and culture was carried out for 1 day in a state where the bottom surface is in contact with air (refer to FIG. 2). The 0.5 mL culture medium was exchanged daily after seeding.
(§2) [1] After removing the culture medium of the hydrogel membrane chamber containing the activated HepG2 cells, 0.5 mL of the culture medium containing 250 vg/mL Fluorescein diacetate (FD) was added, and then culture was carried out at 37° C. for 1 hour in a CO2 incubator (refer to FIG. 4 and Observation A of FIG. 5).
(§3) [2] After removing the culture medium containing the FD remaining in the chamber, washing was performed twice with 0.5 mL of Hank's Balanced Salt Solution (Hank's balanced salt solution: HBSS), 0.5 mL of the culture medium was added to the chamber, and then culture was carried out at 37° C. for 1 hour in a CO2 incubator (refer to Observation B of FIG. 5).
(§4) [1] HepG2 cells were seeded to prepare 12 sets of activated hydrogel membrane chambers. For 6 sets, FD was added to the culture medium and cultured by the same procedure as in [1] to [2] of Example 1.
(§5) [2] Subsequently, after removing the culture medium remaining in the chamber, 0.5 mL of the culture medium was newly added to the chamber. Subsequently, each of three sets was cultured at 37° C. for 1 hour in a CO2 incubator under the following four conditions (refer to FIG. 6).
(§6) i) A set in which HepG2 cells were co-cultured with TFK-1 cells (FD added) ii) A set in which HepG2 cells were co-cultured with TFK-1 cells (FD not added) iii) A set in which HepG2 cells were homo-cultured in a dish containing only a culture medium (FD added) iv) A set in which HepG2 cells were homo-cultured in a dish containing only a culture medium (FD not added)
(§7) [3] The culture medium in the chamber and the dish of i) to iv) was recovered and the fluorescence intensities were measured.
(§8) [2] With respect to the 36 sets of hydrogel membrane chambers in which the cells were seeded and cultured in [1], the culture medium remaining in the chamber was removed, and then 0.5 mL of the culture medium was newly added to the chamber. Subsequently, each of three sets was cultured at 37° C. in a CO2 incubator with culture time of 3 minutes, 30 minutes, and 60 minutes (for each 12 sets) under the following four conditions i) to iv) the same as those of Example 2.
[3] The culture media in the dishes and in the chambers of i) to iv) were recovered 3 minutes, 30 minutes, and 60 minutes after the start of culture, and the fluorescence intensities were measured. Measurements were made three times respectively, and average values are shown in Table 3 (culture time 3 minutes), Table 4 (culture time 30 minutes), and Table 5 (culture time 60 minutes). In FIG. 7, the term “Co-culture” means the set in which HepG2 cells were co-cultured with TFK-1 cells, and the term “Homo-culture” means the set in which HepG2 cells were homo-cultured in the dish containing the culture medium.
as §8, with “to the 48 sets of” for “to the 36 sets of”, “30 minutes, 60 minutes, and 180” for “30 minutes, and 60”, “minutes, and 180 minutes (for” for “minutes, and 60 minutes (for”

[2] = tested on: HepG2 cells co-cultured with Normal Human Dermal Fibroblasts (NHDFs); assay: Fluorescein excretion into chamber and dish, activated HepG2 cells co-cultured with NHDFs; assay type: in vitro ADME; settings: Example 6; culture time 60 minutes
Method: [1] First, HepG2 cells were seeded to prepare 18 sets of activated hydrogel membrane chambers.

[3] = tested on: HepG2 cells co-cultured with TFK-1 cells; assay: Fluorescence microscope observation of Fluorescein in cytoplasm and bile canaliculus-like structure, co-culture with TFK-1 cells; assay type: in vitro ADME, human
Method: [3] […] After removing the culture medium in the dish, 0.5 mL of the culture medium for HepG2 cells was added thereto.
(§9) [1] First, HepG2 cells were seeded to prepare 2 sets of activated hydrogel membrane chambers.

[4] = tested on: HepG2 cells co-cultured with TFK-1 cells; assay: Fluorescein excretion into chamber and dish, activated HepG2 cells in hydrogel membrane chamber co-cultured with TFK-1 cells; assay type: in vitro ADME, human
Method: as §1, §2, §3
[3] Subsequently, after removing the culture medium remaining in the chamber, 0.5 mL of the culture medium was newly added to the chamber. Furthermore, TFK-1 cells (purchased from RIKEN BioResource Center, RCB2537, Lot.002) suspended in 2.0 mL of RPMI 1640 culture medium containing 10% FBS, 100 units/mL penicillin, and 100 μg/mL streptomycin were seeded at 7×10^4 cells/cm^2 in a dish having a diameter of 35 mm and cultured for 3 days, and therefore, monolayered cells were prepared in advance. After removing the culture medium in the dish, 0.5 mL of the culture medium for HepG2 cells was added thereto. The chamber was mounted on the monolayer of TFK-1 cells in the dish having a diameter of 35 mm, and then co-culture was carried out at 37° C. for 1 hour in a CO2 incubator (refer to Observation C of FIG. 5).
[4] The fluorescence intensities of Fluorescein in the culture medium in the chamber and in the dish were measured. In Table 1, FD (−) is a value measured as a background value using a chamber having HepG2 cells cultured without adding FD.
as §4, §5, §6, §7
[2] […]

HepG2 cells [5] = assay: Fluorescence microscope observation of Fluorescein in cytoplasm and bile canaliculus-like structure, homo-culture; assay type: in vitro ADME
Method: as §9

[6] = tested on: HepG2 cells co-cultured with TFK-1 cells; assay: Fluorescein excretion into chamber and dish, activated HepG2 cells in hydrogel membrane chamber co-cultured with TFK-1 cells; assay type: in vitro ADME, human; settings: Example 4

- Average value of set, in chamber (HepG2 cells [1]; human, 3 min, 250 vg/mL): 507
- FD(+)-FD(−) in chamber as percentage of total excreted into chamber and dish (HepG2 cells [1]; human, 30 min, 250 vg/mL): (50%)
- FD(+)-FD(−) in dish as percentage of total excreted into chamber and dish (HepG2 cells [1]; human, 30 min, 250 vg/mL): (50%)
- Average value of set, in chamber (HepG2 cells [1]; human, 1 h, 250 vg/mL): 1145
- Average value of set, in dish (HepG2 cells [1]; human, 1 h, 250 vg/mL): 645
- FD(+)-FD(−) in chamber as percentage of total excreted into chamber and dish (HepG2 cells [1]; human, 1 h, 250 vg/mL): (90%)
- FD(+)-FD(−) in dish as percentage of total excreted into chamber and dish (HepG2 cells [1]; human, 1 h, 250 vg/mL): (10%)
- FD(+)-FD(−), in chamber (HepG2 cells [1]; human, 1 h, 250 vg/mL): 549
- FD(+)-FD(−), in dish (HepG2 cells [1]; human, 1 h, 250 vg/mL): 60
- Average value of set, in chamber (HepG2 cells [1]; human, 180 min, 250 vg/mL): 579
- Average value of set, in dish (HepG2 cells [1]; human, 180 min, 250 vg/mL): 515
- FD(+)-FD(−) in chamber as percentage of total excreted into chamber and dish (HepG2 cells [1]; human, 180 min, 250 vg/mL): (71%)
- FD(+)-FD(−) in dish as percentage of total excreted into chamber and dish (HepG2 cells [1]; human, 180 min, 250 vg/mL): (29%)
- FD(+)-FD(−), in chamber (HepG2 cells [1]; human, 180 min, 250 vg/mL): 88
- FD(+)-FD(−), in dish (HepG2 cells [1]; human, 180 min, 250 vg/mL): 36
Compound: CC(=O)Oc1ccc2c(c1)Oc1cc(OC(C)=O)ccc1C21OC(=O)c2ccccc21 [FD, Fluorescein diacetate]

- amount of Fluorescein excreted into the dish smaller in co-culture with NHDFs than in co-culture with TFK-1 cells [2]: 54%
- total of the fluorescence intensities of Fluorescein excreted into chamber and dish, co-culture with NHDFs compared with homo-culture [2]: almost the same
- rate of the fluorescence intensities of Fluorescein excreted into the dish (lower side) over time (HepG2 cells [1]): decreased over time
- culture time beyond which total excreted Fluorescein fluorescence becomes almost a plateau state (HepG2 cells [1]; human, 250 vg/mL): exceeds 30 minutes
- total of the fluorescence intensities of Fluorescein excreted into the chamber and into the dish (HepG2 cells [1]; human, 1 h, 250 vg/mL): 609
- Fluorescein accumulated in the bile canaliculus-like structure after co-culturing with TFK-1 cells ([3]; Example 1, Observations B and C of FIG. 5, co-culture 1 hour): decreased
- time within which reduction in the amount of Fluorescein accumulated in the bile canaliculus-like structure was confirmed ([3]; Example 5, co-culture with TFK-1 cells): ≤ 1 h
- reduction in the green fluorescence of Fluorescein ([3]; Example 5, co-culture, after 1 hour of excretion): significantly noticeable
- green fluorescence of Fluorescein ([3]; Example 5, co-culture, after 3 hours of excretion): not possible to confirm
- green fluorescence of Fluorescein ([3]; Example 5, co-culture, after 23 hours of excretion): not possible to confirm
- amount of Fluorescein excreted into the dish larger in co-culture with TFK-1 cells than in homo-culture (rate of excretion to the lower side) ([4]; Example 2, 1 hour): 4%
- increase of the total amount of excreted Fluorescein, co-culture with TFK-1 cells vs homo-culture ([4]; Example 2, 1 hour): about 26%
- total of the fluorescence intensities of Fluorescein excreted into the chamber and into the dish ([4]; Example 2, co-cultured with TFK-1 cells, 1 hour): 770
- rate of the fluorescence intensities of Fluorescein excreted into the dish (lower side) over time ([4]; Example 3, co-culture with TFK-1 cells): increased
- total of the fluorescence intensities of excreted Fluorescein, co-culture with TFK-1 cells compared with homo-culture ([4]; Example 3, culture time 3, 30 and 60 minutes): larger
- time needed to reduce the amount of Fluorescein accumulated in the bile canaliculus-like structure (HepG2 cells [5]; Example 5): ≥ 1 days
- reduction in the green fluorescence of Fluorescein (HepG2 cells [5]; Example 5, after 1 hour of excretion): not noticeable
- reduction in the green fluorescence of Fluorescein (HepG2 cells [5]; Example 5, after 3 hours of excretion): significantly noticeable
- total of the fluorescence intensities of excreted Fluorescein, co-culture with TFK-1 cells compared with homo-culture ([6]; at any time of the culture time (3 to 180 minutes)): larger
- culture time beyond which total excreted Fluorescein fluorescence becomes almost a plateau state ([6]; co-culture with TFK-1 cells): exceeds 60 minutes
- rate of the fluorescence intensities of Fluorescein excreted into the dish (lower side) over time ([6]; co-culture with TFK-1 cells): increased
- amount of Fluorescein excreted into the dish (lower side) larger in co-culture with TFK-1 cells than in homo-culture (rate of excretion to the lower side) ([6]; culture time 180 minutes): 36%
Compound: O=C1OC2(c3ccc(O)cc3Oc3cc(O)ccc32)c2ccccc21 [Fluorescein]
- green fluorescence of Fluorescein (HepG2 cells [5]; Example 5, after 23 hours of excretion): fluorescence in the bile canaliculus-like structure remained

— patent publication US20180120298A1, “HEPATOCYTE CULTURE DEVICE CAPABLE OF ENHANCING ACCUMULATION AND EXCRETION OF HEPATIC METABOLITE IN AND INTO BILE CANALICULUS-LIKE STRUCTURE, AND METHOD FOR EVALUATING CANDIDATE COMPOUND SENSITIVE TO EXCRETION INTO BILE OR BLOOD AND HEPATIC METABOLITE OF SAID CANDIDATE COMPOUND USING SAID HEPATOCYTE …” (National Agriculture and Food Reserach Organization, priority 2015, published 2018)
